Experimental data taken from patent publication US9573908B2, “Broad spectrum pro-quorum-sensing molecules as inhibitors of virulence in vibrios” (priority 2012, dated 2017).

What was measured:
[1] = test system: V. cholerae ΔcqsA ΔluxS double synthase mutant; type: cell-based; conditions: for induction of bioluminescence / QS activation: ΔcqsA ΔluxS double synthase mutant (wild type LuxO)
[2] = test system: V. cholerae luxO^D47E strain; type: cell-based, Vibrio cholerae; conditions: for induction of bioluminescence / QS activation: luxO^D47E mutant
[3] = test system: qrr4 expression in V. cholerae luxO^D47E strain; type: cell-based, Vibrio cholerae; conditions: 50 μM compound
vpsR = assay: Transcription of the σ54-dependent gene vpsR; type: cell-based, Vibrio cholerae; conditions: in the presence of compound
LuxO D47E = LuxO D47E (Vibrio cholerae serotype O1, UniProt Q9KT84, D47E); assay: Coupled-enzyme ATPase assay, LuxO D47E; type: biochemical; conditions: for inhibition of ATP hydrolysis: FIG. 5A-C; for mode of inhibition: Lineweaver-Burk plots, parallel slopes
E. coli NtrC = target: T1, E. coli NtrC (Escherichia coli, UniProt P0AFB8, D54E); assay: biochemical; conditions: read-out: inhibition of ATPase activity of purified E. coli NtrC
T1 construct: His6 (N); made in house; host or cells: E. coli BL21 (DE3), strain WN2181 (pET28B-NtrC D54E)
T1 sequence (P0AFB8 1-469 D54E): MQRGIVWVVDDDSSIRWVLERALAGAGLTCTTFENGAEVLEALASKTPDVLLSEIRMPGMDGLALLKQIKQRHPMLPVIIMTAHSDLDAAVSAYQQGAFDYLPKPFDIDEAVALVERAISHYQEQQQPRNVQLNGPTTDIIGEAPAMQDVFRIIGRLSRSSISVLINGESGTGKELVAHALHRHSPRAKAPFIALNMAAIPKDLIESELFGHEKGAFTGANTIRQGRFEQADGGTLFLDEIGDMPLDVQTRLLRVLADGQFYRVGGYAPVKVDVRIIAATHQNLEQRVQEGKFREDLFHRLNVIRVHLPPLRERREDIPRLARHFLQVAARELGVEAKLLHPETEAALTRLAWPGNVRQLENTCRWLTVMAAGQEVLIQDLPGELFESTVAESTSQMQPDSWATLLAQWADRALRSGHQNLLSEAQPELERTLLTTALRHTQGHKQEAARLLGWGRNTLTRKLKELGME

[4] = test system: V. parahaemolyticus luxO* mutant (LM4476); assay: Colony opacity of V. parahaemolyticus; type: cell-based, Vibrio parahaemolyticus; conditions: 500 μM in medium
LuxO D47E/I211F = LuxO D47E/I211F (Vibrio cholerae serotype O1, UniProt Q9KT84, D47E/I197F); assay: Coupled-enzyme ATPase assay, LuxO D47E/I211F; type: biochemical; conditions: 100 μM Compound 12, 2.5 mM ATP (FIG. 11)
[5] = test system: V. cholerae luxO^D47E strain; type: cell-based, Vibrio cholerae; conditions: 0-200 μM compound 12, Western blot
[6] = test system: V. parahaemolyticus luxO* strain (LM4476); type: cell-based; conditions: 200 and 500 μM compound 12, Western blot
[7] = test system: V. parahaemolyticus LM4476 (luxO*) on cultured HeLa cells; assay: V. parahaemolyticus cytotoxicity assay on HeLa cells (LDH release); conditions: 500 μM, luxO* mutant, MOI 10

| SMILES | EC50 (potency) of QS activation ([1]; dose-response curves, FIG. 2C, comparison in words) | induction of bioluminescence / QS activation [1] | induction of bioluminescence / QS activation [2] | decrease of GFP production from qrr4-gfp transcriptional fusion [3] [fold] | change in transcription of vpsR (vpsR) | inhibition of ATP hydrolysis (LuxO D47E) | mode of inhibition (LuxO D47E) | inhibition at 250 µM (E. coli NtrC) [%] | colony morphology [4] | enhancement in potency ([2]; EC50 from FIG. 3, tert-butyl carbinol side chain versus the series) [fold] | inhibition of ATPase activity of LuxO D47E/I211F (LuxO D47E/I211F) | HapR level [5] | TcpA level [5] | VopD production and secretion [6] | average cytotoxicity (HeLa cell lysis) ([7]; 2 to 3 hours post-infection) [%] | cytotoxicity (HeLa cell lysis) ([7]; 4-hour post-infection) [%] |
| --- | --- | --- | --- | --- | --- | --- | --- | --- | --- | --- | --- | --- | --- | --- | --- | --- |
| CC(C)COC(=O)CSc1n[nH]c(=O)[nH]c1=O [Compound 11, Isobutyl 2-((3,5-dioxo-2,3,4,5-tetrahydro-1,2,4-triazin-6-yl)thio)acetate] | highest potency | activate QS | activate QS | ~3 | did not change significantly | inhibit ATP hydrolysis in a dose-dependent manner | uncompetitive inhibitors | ~10 | switch from translucent to opaque | – | – | – | – | – | – | – |
| CC(C)(C)COC(=O)CSc1n[nH]c(=O)[nH]c1=O [Compound 12, Neopentyl 2-((3,5-dioxo-2,3,4,5-tetrahydro-1,2,4-triazin-6-yl)thio)acetate] | – | activate QS | activate QS | – | – | inhibit ATP hydrolysis in a dose-dependent manner | uncompetitive inhibitors | ~10 | switch from translucent to opaque | 3 | not inhibited | increased | decreased | decreased production and secretion | ~30 | ~100 |
